These results are taken from patent US20260217712A1, “SOLID STATE FORMS OF MNK INHIBITORS” (4E Therapeutics, Inc., priority 2023, published 2026).

Format in all cases: physicochemical
The nature of data set [1]: Competitive slurries of Pattern 3 and Pattern 11, XRPD. The settings on record: competitive slurry, solvent and temperature per sample; for XRPD after 7 days: 20 vol. On the procedure:
A solid mixture of Structure (I) Pattern 3 (from Lot B, 300 mg) and Pattern 11 (Sample 35-1, 300 mg) was mixed for 3 hours using a turbula mixer.
The solid mixture (30 mg) was suspended in solvent (dried with molecular sieves, 600 μL, 20 vol) and either stirred in the fridge, shaken at RT or 55° C. After 7 days, an aliquot of each suspension was analyzed by XRPD. Samples that were still a mixture of forms were placed back into fridge/shakers for a further 10 days and re-analyzed (results shown in Table 36).
Competitive slurry experiments at 55° C., along with one at 5° C., were repeated using a saturated solution as the solvent mixture to minimize dissolution that may have occurred at temperatures other than room temperature.
A saturated solution of THF/Water (9:1) (5 mL) with Structure (I) (from Lot B) was equilibrated at 55° C. overnight in a shaker. The solution was filtered using 0.45 μm nylon filter before use.
A solid mixture of Pattern 3 and Pattern 11 (30 mg) was suspended in the saturated solution (600 μL, 20 vol) and either stirred in the fridge (5° C.) or shaken at 55° C. After 1 day, aliquots of the suspensions were analyzed by XRPD. Both samples were placed back into fridge/shaker. After a total of 11 days, the samples were removed from fridge/shaker. Sample 38-2 was filtered before XRPD, Sample 38-1 was pipetted onto the XRPD holder and allowed to dry before analysis (solid passed through filter).

Data set [2] in a line: Gravimetric solubility measurements from competitive slurry samples. The settings on record: organic solvent or mixture, thermodynamic from solid, room temperature. From the text: In order to determine that Pattern 3 was not simply being dissolved in the solvent systems when the solid was introduced, gravimetric solubility measurements were made using the samples at room temperature. […] There was insufficient solubility at room temperature to dissolve the Pattern 3 present in the competitive slurry experiments.

A short description of data set [3]: Gravimetric vapor sorption (GVS) and XRPD post-GVS. The method, then: Sorption isotherms were obtained using a SMS DVS Intrinsic moisture sorption analyzer, controlled by DVS Intrinsic Control software. The sample temperature was maintained at 25° C. by the instrument controls. The humidity was controlled by mixing streams of dry and wet nitrogen, with a total flow rate of 200 mL/min. The relative humidity was measured by a calibrated Rotronic probe (dynamic range of 1.0-100% RH), located near the sample. The weight change, (mass relaxation) of the sample as a function of % RH was constantly monitored by a microbalance (accuracy±0.005 mg).
Typically, 5-30 mg of sample was placed in a tared mesh stainless steel basket under ambient conditions. The sample was loaded and unloaded at 40% RH and 25° C. (typical room conditions). A moisture sorption isotherm was performed as outlined below (2 scans per complete cycle). The standard isotherm was performed at 25° C. at 10% RH intervals over a 0-90% RH range. Typically, a double cycle (4 scans) was carried out. Data analysis was carried out within Microsoft Excel using the DVS Analysis Suite.
Sorption isotherms were obtained using a Hiden IGASorp moisture sorption analyser, controlled by Isochema HISorp software. The sample temperature was maintained at 25° C. by a Grant LT ecocool 150 re-circulating water bath. The humidity was controlled by mixing streams of dry and wet nitrogen, with a total flow rate of 250 ml·min-1. The relative humidity was measured by a calibrated Vaisala RH probe (dynamic range of 0-95% RH), located near the sample. The weight change, (mass relaxation) of the sample as a function of % RH was constantly monitored by the microbalance (accuracy±0.001 mg).
Typically, 20-30 mg of sample was placed in a tared mesh stainless steel basket under ambient conditions. The sample was loaded and unloaded at 40% RH and 25° C. (typical room conditions). A moisture sorption isotherm was performed as outlined below (2 scans giving 1 complete cycle). The standard isotherm was performed at 25° C. at 10% RH intervals over a 0-90% RH range. Typically, a double cycle (4 scans) was carried out. Data analysis was carried out within the Isochema HISorp 2019 software and exported into Microsoft Excel to present accordingly.

A short description of data set [4]: Static storage at 40° C./75% RH, XRPD and HPLC post storage. The settings on record: 40° C./75% RH, 8 days. The method, then: Purity analysis was performed on an Agilent HP1100/Infinity II 1260 series system equipped with a diode array detector and using OpenLAB software. The full method details are provided below:
Poorly Crystalline Structure (I) (from Lot A, Free Form Pattern 1, 30 mg) was dissolved in 50 volumes of THF:Water 9:1 at 60° C. in 13 vials, stirring at 500 RPM (small amount of debris present). The solutions were then treated with 1.1 molar equivalents (90/180 μL) of selected counter-ions (Table 7). The resulting solutions were then cooled down to 5° C. at 0.1° C./min and were held at this temperature for 2 days. The suspensions were filtered and dried under suction for 20 min. The gummed sample was left with the cap off to promote crystallization. All solids obtained were initially analyzed by XRPD and stored in glass HPLC vials for subsequent analysis.
Any solids obtained were analyzed by XRPD, ^1H NMR, HPLC, TGA, DSC, XRPD post storage at 40° C./75% RH after 7 days & IC if necessary. Additional microscopy techniques (PLM & HSM) were used to complement the above analysis where appropriate.

The nature of a further data set: pKa measurements. The settings on record: listed as Lot A.
The nature of data set [5]: Initial solubility testing in solvents. The settings on record: up to 50 vol, up to 50° C. The method, then:
Structure (I) (20 mg) from Lot A (free form Pattern 1) was charged into HPLC vials, treated with solvent, 10 volumes at a time, until the material fully dissolved or a maximum of 50 volumes had been added. Once 50 volumes was reached without dissolution, the temperature was increased to 50° C. To each suspension, 1.1 molar equiv. (60 μL) of HCl (1M in THF) was added, stirred for 5 min, and slowly cooled to 5° C. at 0.1° C./min and held at that temperature overnight. All solids were then isolated by filtration through PTFE frits and dried under suction for 20 min. The samples were analyzed by XRPD.

Data set [6] is described as follows: Thermodynamic solubility in simulated media and buffers. The settings on record: 25 °C, thermodynamic from solid. On the procedure:
The thermodynamic solubility for Pattern 11 was determined in 3 simulated media and two buffers. […]

Data set [7] in a line: Static storage at 25° C./97% RH, XRPD and HPLC post storage. The settings on record: 8 days, listed as Lot A.
A short description of data set [8]: Variable temperature XRPD (VT-XRPD). The settings on record: 250° C. The source says:
(§1) XRPD diffractograms were collected on a PANalytical Empyrean diffractometer using Cu Kα radiation (45 kV, 40 mA, λ=1.544398 Å) in reflection geometry. The instrument was fitted with an Anton Paar CHC plus+ stage fitted with graphite/Kapton windows and equipped with air cooling coupled or a low vacuum pump system using an Edwards RV3 pump. A programmable divergence slit (in automatic mode), with a 10 mm fixed incident beam mask, Ni filter and 0.04 rad Soller slits were used on the incident beam. A PIXcel3D detector, placed on the diffracted beam, was fitted with a programmable anti-scatter slit (in automatic mode) and 0.04 rad Soller slits.
For variable temperature (VT-XRPD) experiments the samples were prepared and analyzed in an Anton Paar chromed sample holder. The sample chamber was under ambient atmosphere and a heating/cooling rate of 10° C./min was used with a 2 min isothermal hold before the measurement started. The measurement parameters are as per the standard screening data collection method (detailed above). Measurements were taken at the following temperatures: 25, 80, 170, 250, and 25° C.

Another data set can be described thus: XRPD under vacuum. The settings on record: vacuum released for 30 min, ambient conditions.
From the text: as §1
For XRPD under vacuum the samples were prepared and analyzed in an Anton Paar chromed sample holder. The sample temperature was kept constant throughout at 25° C. The measurement parameters are as per the standard screening data collection method (detailed above). An initial measurement was taken before the vacuum was initiated and then subsequently at 10 min intervals. Data collection was stopped after three consecutive scans showing no change.

A short description of data set [9]: Drying / standing under ambient conditions, XRPD. The settings on record: ambient conditions. The method, then:
Structure (I) (Sample 28-2, 30 mg, Poorly Crystalline Pattern 3) was wetted with solvent (300 μL, 10 vol) according to Table 30 and put into a shaker at 50° C. for 6 days. The suspensions were isolated using filter cartridges and positive pressure. A XRPD pattern was collected for each sample. […] This characterization is presented and discussed in Examples detailed herein. (see, e.g., FIG. 75)

In brackets after ≈: the same amount, converted by molar mass. Entries after “also recorded” stand apart in the source; their conditions may differ. Like-named read-outs stand apart in the source and are kept apart here.

For orientation: solubility means how much of the substance goes into solution per volume. A word on the solubility (thermodynamic): it is solubility found after equilibrating the solid with the medium.

`Cc1cc(Nc2cc(N)ncn2)c(=O)n2c1C(=O)NC21CCC2(CC2)CC1` [Pattern 36-9]: in data set [1], the “XRPD after 7 days” value was “Patterns 3 and 11”; the “XRPD after 17 days” value was “Patterns 3 and 11”. Also, the solubility in [2] (IPA/Water (95:5)) was found to be 3800 µg/mL (≈ 10.4 mM).

Regarding `Cc1cc(Nc2cc(N)ncn2)c(=O)n2c1C(=O)NC21CCC2(CC2)CC1` [Pattern 1], in data set [3] (0-90% RH), the “GVS mass change expressed as water” value is listed as ~90% RH, exhibiting a slight hysteresis (ca. 6 mol eq water),. Moreover, the “Post GVS XRPD form” value in [3] (after double cycle GVS, listed as Lot A) is “unchanged; also recorded: showed that the solid form remained as poorly crystalline”. Also, the “hygroscopicity (in words)” value in data set [3] (listed as Lot A) is on record as “highly hygroscopic. XRPD of the sample after the analysis”. Moreover, the “HPLC after storage at 40° C./75% RH (8 days)” value in data set [4] is listed as “HPLC-98.2%”. For the same compound, the “XRPD after storage at 40° C./75% RH (8 days)” value in [4] (listed as Lot A) is “unchanged; also recorded: XRPD-poorly crystalline Pattern 1 (no change)”. In addition, in “pKa measurements”, the “acidic pKa (acidic center)” value is recorded as “Acidic: 11.49” and the “basic pKa” value is recorded as “Basic: 4.73”. The “solubility in solvents (in words)” value in data set [5] was “insoluble in most solvents”. Besides, the solubility (thermodynamic) in data set [6] (simulated gastric fluid, SGF (pH 1.4), read-out: Thermodynamic solubility in simulated media, SGF) was 130 µg/mL (≈ 0.355 mM). Also, the solubility (thermodynamic) in [6] (FaSSIF (pH 6.7), read-out: Thermodynamic solubility in simulated media, FaSSIF) was 6 µg/mL (≈ 0.0164 mM). In addition, the solubility (thermodynamic) in data set [6] (FeSSIF (pH 5.1), read-out: Thermodynamic solubility in simulated media, FeSSIF) was 20 µg/mL (≈ 0.0546 mM). Also, in data set [7], the “HPLC purity after storage at 25° C./97% RH (8 days)” value is “HPLC-97.5%” and the “XRPD after storage at 25° C./97% RH (8 days)” value is recorded as “XRPD-poorly crystalline Pattern 1 (no change)”.

For `Cc1cc(Nc2cc(N)ncn2)c(=O)n2c1C(=O)NC21CCC2(CC2)CC1` [Pattern 36-10], in data set [1], the “XRPD after 7 days” value is “Patterns 3 and 11”; the “XRPD after 17 days” value was “Patterns 3 and 11”. Further, the solubility in data set [2] (THF/Water (9:1)) came out at 8100 µg/mL (≈ 22.1 mM).

For the compound `Cc1cc(Nc2cc(N)ncn2)c(=O)n2c1C(=O)NC21CCC2(CC2)CC1` [Pattern 36-8], in data set [1], the “XRPD after 7 days” value is “Patterns 3 and 11”; the “XRPD after 17 days” value is “Patterns 3 and 11”. In addition, in data set [2] (Toluene), the solubility is 2300 µg/mL (≈ 6.28 mM).

As to `Cc1cc(Nc2cc(N)ncn2)c(=O)n2c1C(=O)NC21CCC2(CC2)CC1` [Pattern 10], the “VT-XRPD form at 250° C.” value in data set [8] is listed as “partially converted to Pattern 11”. Besides, the “XRPD after vacuum released” value in the data set “XRPD under vacuum” is “converted back to Pattern 3”. In addition, in [9], the “form under ambient conditions (XRPD after ambient overnight)” value is reported as “converted back to Pattern 3”.
